Source: patent publication US20220193006A1, “COMPOSITIONS FOR EFFECTIVE MANAGEMENT OF FIBROBLAST-LIKE SYNOVIOCYTES MEDIATED RHEUMATOID ARTHRITIS” (priority 2020, published 2022)

What was measured:
IFN-γ = test: Inflammatory markers, RT-PCR expression study in TNF-α induced FLS; type: cell-based; details: sample 10 μg/mL; FLS induced with 10 ng/ml rat TNF-α, 6 hrs; Control = 1, Induced 5.7
Experimental: (§1) FLS cells (8×10^4 cells/well) were seeded in 24-well plates and incubated overnight at 37° C. under 5% CO2. […] RT-PCR expression study: After 6 hrs of incubation, total cellular RNA from untreated and treated cells were isolated using Trizol Reagent® (Ambion, Life Technologies), according to the manufacturer's instructions, followed by RNase-free DNase I treatment (ThermoFisher Scientific) to remove any genomic DNA. Messenger RNA quality and concentration were analyzed spectrophotometrically (NanoDrop Lite, ThermoFisher Scientific). One microgram of total RNA was reverse transcribed into cDNA using Revert-aid First Strand cDNA synthesis kit (ThermoFisher Scientific), according to the manufacturer's instructions, and stored at −80° C. until use. Then 20 μl of the reaction mixture was subjected to PCR using SYBR green qPCR master mix for amplification of cDNAs using specifically designed primers procured from Eurofins India, as an internal control, the house keeping gene § actin was co-amplified with each reaction (Table 2). PCR was carried out in Light cycler 96 (Roche Life Science) and PCR conditions for genes were initial denaturation at 95° C. for 10 min followed by 35 cycles consisting of denaturation at 95° C. for 30 seconds, annealing of primers at 60° C. for 30 seconds, extension at 72° C. for 30 seconds and final cooling at 72° C. for 30 seconds (Table 1).

CCL-5 = test: as above; type: cell-based; details: sample 10 μg/mL; FLS induced with 10 ng/ml rat TNF-α, 6 hrs; Control = 1, Induced 7.16
Experimental: as §1

TNF-α = test: as above; type: cell-based; details: sample 10 μg/mL; FLS induced with 10 ng/ml rat TNF-α, 6 hrs; Control = 1, Induced 7.93
Experimental: as §1

MMP-3 = test: as above; type: cell-based; details: sample 10 μg/mL; FLS induced with 10 ng/ml rat TNF-α, 6 hrs; Control = 1, Induced 5.14
Experimental: as §1

Cathepsin = test: as above; type: cell-based; details: sample 10 μg/mL; FLS induced with 10 ng/ml rat TNF-α, 6 hrs; Control = 1, Induced 3.86
Experimental: as §1

Bax/Bcl-2 = test: Apoptosis analysis, Bax/Bcl-2 RT-PCR expression in FLS; type: cell-based, rat; details: 24 h treatment; compared to the control; FIG. 19
Experimental: FLS apoptosis was assessed with RT-PCR expression study. In short, FLS cells (8×10^4 cells/well) were seeded in 24-well plates and incubated overnight at 37° C. under 5% CO2. After synchronization in serum-free medium for 24 h, cells were treated with or without the presence of samples in DMEM 10% FBS for 24 h. After the treatment period, the cells were collected, total cellular RNA was isolated and processed for RT-PCR analysis (Table 3) as mentioned before.

[1] = system: Fibroblast-like synoviocytes (FLS); test: WST-1 proliferation assay; type: cell-based, rat; details: 20 μg/mL, 72 hours; FIG. 5
[2] = system: collagen-induced arthritis (CIA); test: Collagen-induced arthritis study, arthritic score; type: in vivo, rat; details: positive control, 10 mg/kg; RA control is 3.5; scale 0-4; FIG. 32
Description: The […] (Table 4) collagen-induced arthritis (CIA) is a widely studied autoimmune model of rheumatoid arthritis. In this model, autoimmune arthritis is induced by immunization with type II collagen (CII) emulsified in complete Freund's adjuvant. These animals develop an autoimmune-mediated polyarthritis that shares several clinical, histological, and immunological features with the human autoimmune disease rheumatoid arthritis. The immune response to CII is characterized by both the stimulation of collagen-specific T cells and the production of high titers of antibody specific for both the immunogen (heterologous CII) and the autoantigen (mouse or rat CII).
Arthritis induced by administering type-2 collagen (chicken sternal cartilage, Sigma catalog no: C9301) which will be emulsified with incomplete Freund's adjuvant (FIA) at 1:1 ratio. On Day 0, Rats were intradermally injected with 200 μL (200 μg/animal) of collagen-FIA emulsion at the base of the tail (First Immunization). For booster injection the emulsion was prepared same as above and injected with 100 μL (100 μg/animal) of collagen-FIA emulsion given on day 7. Test sample administered from day 0 to day 20. […]

[3] = system: Th17 and Treg cells in spleen; test: Treg and Th17 analysis in spleen (flow cytometry); type: in vivo, rat; details: spleen of CIA rats; celecoxib control; RA control at 3.5; FIG. 35
Experimental: Spleen was obtained from collagen induced arthritis rats under sterile conditions for the lymphocyte isolation. The spleen was washed twice with PBS containing 100 μg/ml streptomycin and 100 U/ml penicillin and cut into small pieces with microsurgery scissors, homogenized with plunger end of the syringe and filtered using a 100 μm mesh strainer. The filtrate was centrifuged for 5 min at 1200 rpm, washed 1-2 times with PBS, after which 1×10^6 cells/ml were suspended in RPMI media supplemented with 10% FBS. The imbalance is effected by reducing Th17 cells and increasing T-cell (Treg) (FIGS. 33-35) with the ratio of Th17/Treg preferably as 1, or more preferably between 0-1 compared to RA control at 3.5 (FIG. 35).
After the stimulation, cells were collected and 2×10^5 cells were aliquoted into different tubes for evaluating Th17 and Treg population. The antibody dilutions used for the analysis were as recommended by the respective manufacturer. To evaluate Th17 population, cells were initially stained with FITC Mouse Anti-Rat CD3 (559975, BD pharmingen) and APC Mouse Anti-Rat CD4 (550057, BD pharmingen) antibodies. […] FCM was performed on a BD FACSCelesta system (BD Biosciences, Franklin Lakes, N.J., USA) and analyzed using FlowJo software.

| Compound | IFN-γ (inflammatory marker expression) (IFN-γ) | CCL-5 (inflammatory marker expression) (CCL-5) | TNF-α (inflammatory marker expression) (TNF-α) | MMP-3 (inflammatory marker expression) (MMP-3) | Cathepsin (inflammatory marker expression) (Cathepsin) | Bax/Bcl-2 ratio (pro-apoptosis), ranking (Bax/Bcl-2) | inhibition of FLS proliferation, trend among curcuminoid analogues [1] | arthritis score [2] | ratio of Th17/Treg [3] |
| --- | --- | --- | --- | --- | --- | --- | --- | --- | --- |
| O=C(/C=C/c1ccc(O)cc1)CC(=O)/C=C/c1ccc(O)cc1 [BDMC, bisdemethoxycurcumin] | 4.57 ± 0.11 | 4.07 ± 0.05 | 3.20 ± 2.1 | 6.07 ± 0.05 | 3.36 ± 0.37 |  |  |  |  |
| COc1cc(/C=C/C(=O)CC(=O)/C=C/c2ccc(O)c(OC)c2)ccc1O [Curcumin, curcumin] | 2.7 ± 0.19 | 3.01 ± 0.04 | 3.93 ± 0.84 | 3.98 ± 0.48 | 2.70 ± 0.14 | BDMC>DMC>curcumin | BDMC>curcumin>DMC |  |  |
| COc1cc(/C=C/C(O)=C/C(=O)/C=C/c2ccc(O)cc2)ccc1O [DMC, demethoxycurcumin] | 4.43 ± 0.15 | 7.03 ± 3.03 | 3.57 ± 1.77 | 4.91 ± 0.41 | 3.69 ± 0.14 |  |  |  |  |
| Cc1ccc(-c2cc(C(F)(F)F)nn2-c2ccc(S(N)(=O)=O)cc2)cc1 [celecoxib] |  |  |  |  |  |  |  | 1 | 0.5 |
